The target in this assay is T1, Recombinant human EP300 containing the bromodomain (EP300-BD (1040-1161)) (Homo sapiens, UniProt Q09472).
T1 construct: Recombinant human EP300 bromodomain (EP300-BD (1040-1161)); made in house; host or cells: E. coli BL21-CodonPlus (DE3), modified pET vector
T1 sequence (Q09472 1040-1161): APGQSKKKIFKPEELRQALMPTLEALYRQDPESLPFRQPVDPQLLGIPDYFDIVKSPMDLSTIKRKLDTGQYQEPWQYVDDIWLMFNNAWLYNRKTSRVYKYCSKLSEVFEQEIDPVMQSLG
Put plainly: EP300 Alphascreen binding assay. In outline: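 Displacement of a biotinylated acetyl-K56 histone H3 peptide from the N-His bromodomain construct (1040-1161) measured by AlphaScreen proximity, beads at 7.5 μg/ml final, read 60 min after addition. Protein, peptide and compound first incubated 1 h at room temperature, pH 7.5 HEPES buffer; IC50 by four-parameter logistic fit.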
In general terms: Bead proximity is the source of the signal in Alpha formats.

Structures are written as SMILES.

By IC50 is commonly meant the concentration that inhibits the measured activity by half. As to `Cc1noc(C)c1-c1cnc2c(c1)c(-c1ccc(C(=O)O)cc1Cl)cn2C(c1ccccn1)C1CCCC1` (stereo not drawn) [P-0027, 3-chloro-4-(1-(cyclopentyl(pyridin-2-yl)methyl)-5-(3,5-dimethylisoxazol-4-yl)-1H-pyrrolo[2,3-b]pyridin-3-yl)benzoic acid], the IC50 was in the range of 0.1 to 1000 nM.

For the molecule `Cc1cc(-c2cn(C(c3ccccn3)C3CCCC3)c3ncc(-c4c(C)noc4C)cc23)ccc1C(=O)O` (stereo not drawn) [P-0028, 4-(1-(cyclopentyl(pyridin-2-yl)methyl)-5-(3,5-dimethylisoxazol-4-yl)-1H-pyrrolo[2,3-b]pyridin-3-yl)-2-methylbenzoic acid], the IC50 is 0.1 to 1000 nM.

In the case of `Cc1noc(C)c1-c1cnc2c(c1)c(-c1ccc(C(=O)O)c(C(F)(F)F)c1)cn2C(c1ccccn1)C1CCCC1` (stereo not drawn) [P-0029, 4-(1-(cyclopentyl(pyridin-2-yl)methyl)-5-(3,5-dimethylisoxazol-4-yl)-1H-pyrrolo[2,3-b]pyridin-3-yl)-2-(trifluoromethyl)benzoic acid], the half-inhibitory concentration (IC50) was in the range of 0.1 to 1000 nM.

In the case of `Cc1noc(C)c1-c1cnc2c(c1)c(-c1ccc(C(=O)O)c(O)c1)cn2C(c1ccccn1)C1CCCC1` (stereo not drawn) [P-0030, 4-(1-(cyclopentyl(pyridin-2-yl)methyl)-5-(3,5-dimethylisoxazol-4-yl)-1H-pyrrolo[2,3-b]pyridin-3-yl)-2-hydroxybenzoic acid], the IC50 fell in the range of 1000 to 8000 nM.

As to `Cc1noc(C)c1-c1cnc2c(c1)c(-c1ccc(CC(=O)O)cc1)cn2C(c1ccccn1)C1CCCC1` (stereo not drawn) [P-0031, 2-(4-(1-(cyclopentyl(pyridin-2-yl)methyl)-5-(3,5-dimethylisoxazol-4-yl)-1H-pyrrolo[2,3-b]pyridin-3-yl)phenyl)acetic acid], the IC50 was in the range of 0.1 to 1000 nM.

With `Cc1noc(C)c1-c1cnc2c(c1)c(-c1ccc(C(C)(C)C(=O)O)cc1)cn2C(c1ccccn1)C1CCCC1` (stereo not drawn) [P-0032, 2-(4-(1-(cyclopentyl(pyridin-2-yl)methyl)-5-(3,5-dimethylisoxazol-4-yl)-1H-pyrrolo[2,3-b]pyridin-3-yl)phenyl)-2-methylpropanoic acid], the IC50 was in the range of 0.1 to 1000 nM.

Turning to `Cc1noc(C)c1-c1cnc2c(c1)c(-c1ccc(C3(C(=O)O)CC3)cc1)cn2C(c1ccccn1)C1CCCC1` (stereo not drawn) [P-0033, 1-(4-(1-(cyclopentyl(pyridin-2-yl)methyl)-5-(3,5-dimethylisoxazol-4-yl)-1H-pyrrolo[2,3-b]pyridin-3-yl)phenyl)cyclopropane-1-carboxylic acid], the IC50 is 0.1 to 1000 nM.

As for `Cc1noc(C)c1-c1cnc2c(c1)c(-c1ccc(C(F)(F)C(=O)O)cc1)cn2C(c1ccccn1)C1CCCC1` (stereo not drawn) [P-0034, 2-(4-(1-(cyclopentyl(pyridin-2-yl)methyl)-5-(3,5-dimethylisoxazol-4-yl)-1H-pyrrolo[2,3-b]pyridin-3-yl)phenyl)-2,2-difluoroacetic acid], the IC50 lay within 0.1 to 1000 nM.

As to `COc1ncccc1-n1cc(-c2ccc(C(=O)O)cc2OC(F)(F)F)c2cc(-c3c(C)noc3C)cnc21` [P-0316, 4-(5-(3,5-dimethylisoxazol-4-yl)-1-(2-methoxypyridin-3-yl)-1H-pyrrolo[2,3-b]pyridin-3-yl)-3-(trifluoromethoxy)benzoic acid], the IC50 was in the range of 0.1 to 1000 nM.

Turning to `Cc1ncccc1-n1cc(-c2ccc(C(=O)O)cc2OC(F)(F)F)c2cc(-c3c(C)noc3C)cnc21` [P-0317, 4-(5-(3,5-dimethylisoxazol-4-yl)-1-(2-methylpyridin-3-yl)-1H-pyrrolo[2,3-b]pyridin-3-yl)-3-(trifluoromethoxy)benzoic acid], the half-inhibitory concentration (IC50) was in the range of 0.1 to 1000 nM.

Consider `Cc1noc(C)c1-c1cnc2c(c1)c(-c1ccc(C(=O)O)cc1OC(F)(F)F)cn2-c1cnn(C)c1` [P-0318, 4-(5-(3,5-dimethylisoxazol-4-yl)-1-(1-methyl-1H-pyrazol-4-yl)-1H-pyrrolo[2,3-b]pyridin-3-yl)-3-(trifluoromethoxy)benzoic acid], for which the IC50 was in the range of 0.1 to 1000 nM.

Consider `Cc1noc(C)c1-c1cnc2c(c1)c(-c1ccc(C(=O)O)cc1OC(F)(F)F)cn2-c1cncnc1` [P-0319, 4-(5-(3,5-dimethylisoxazol-4-yl)-1-(pyrimidin-5-yl)-1H-pyrrolo[2,3-b]pyridin-3-yl)-3-(trifluoromethoxy)benzoic acid], for which the IC50 fell in the range of 0.1 to 1000 nM.

The record behind these values is patent publication US11446287B2, “Compounds and methods for EP300 or CBP modulation and indications therefor” (Opna Immuno-Oncology SA, priority 2019, dated 2022).
